Measured values published in PubChem BioAssay AID1963833 (Molecular Pharmacology Branch, DTP, NCI, 2024).

Tested on: 883617-216-R-J1-PDC complex spheroid viability
Assay: Anticancer human tumor 883617-216-R-J1-PDC patient-derived bladder carcinoma cell line growth inhibition [POLQ]
Conditions: for IC50: curve of first compound; for viability, T/C: stronger effect = lower value
Protocol: Multicellular complex tumor spheroid response to Polymerase (POL) inhibitors (novobiocin, ART-558, RP6685) in combination with a variety of drugs and investigational agents in selected tumor cell lines
The POL inhibitors (novobiocin, ART-558, and RP6685) were evaluated both individually and in combination with standard of care and investigational anticancer small molecules within a complex spheroid model of solid tumors. . Complex spheroids include a stromal component modeled by human endothelial cells (HUVEC) and fibroblasts modeled by human mesenchymal stem cells (MSCs). The concentration ranges selected for each drug and investigational agent were based upon clinically achievable concentrations if the clinical Cmax of the agent was known.
Compounds. The drugs and investigational agents: novobiocin (NSC847541), ART-558 (NSC835418), RP-6685 (NSC848927), peposertib (NSC802822), ceralasertib (NSC780249), elimusertib (NSC800525), camonsertib (NSC841442), AZD-1390 (NSC803789), olaparib (NSC753686), talazoparib (NSC767125), rucaparib (NSC756644), sotorasib (NSC818433), MRTX-1133 (NSC836407), SN-38 (NSC673596), topotecan (NSC609699), epotoside (NSC141540), doxorubicin (NSC123127), gemcitabine (NSC613327), 5-fluorouracil (NSC19893), paclitaxel (NSC125973), vemurafenib (NSC761431), MSA-2 (NSC828583), SN-011 (NSC837082), adavosertib (NSC754352), prexasertib (NSC758257), carboplatin (NSC241240) and oxaliplatin (NSC266046), were obtained from the National Cancer Institute (NCI) Developmental Therapeutics Program Chemical Repository (21). The FDA-approved anticancer drug set is available from the Developmental Therapeutics Program at https://dtp.cancer.gov/organization/dscb/obtaining/. […] The stock solutions were prepared in dimethyl sulfoxide (DMSO, Sigma-Aldrich, St. Louis, MO, cat. D2650), except for the platinum compounds which were prepared in saline (Quality Biological, Gaithersburg, MD, cat. 114-055-101), at 800-fold the tested concentration and stored at -70 degrees C prior to their use. All drugs and investigational agents were tested over a range starting from a high concentration at or near the clinical Cmax and decreasing in half-log increments. If the clinical Cmax for an agent had not been determined, the highest concentration tested was 10 microM, except for SN-38, which was tested at a high concentration of 1 microM.
Cell Culture. All cells were maintained in an incubator at 37 degrees C and 5% CO2 with 95% humidity. The PDC lines were cultured according to standard operating procedures established by the NCI PDMR (https://pdmr.cancer.gov). Table 3 of the manuscript, lists the cell lines along with the number of the three cell types plated to form the mct-spheroids and media for tumor cell growth. After thawing, all PDC lines, except 997537-175-T-J1-PDC and 415267-285-R-J2-PDC, were cultured in Matrigel-coated flasks prepared with a working solution of 1X Ham's F-12 nutrient mix, without supplementation (Thermo Fisher Scientific, cat. 11765054), 100 U/mL penicillin-streptomycin (Thermo Fisher Scientific, cat. 15140122), and 2.5% Matrigel (Corning Inc., Corning, NY, cat. 354248) for the first three passages. The two PDC lines 997537-175-T-J1-PDC and 415267-285-R-J2-PDC were cultured on uncoated flasks. The 857933-349-R-J2-PDC line was cultured in 6C/Colon 1B media containing advanced DMEM/F-12 (Thermo Fisher Scientific, cat. 12634028), 10 mM HEPES (Thermo Fisher Scientific, cat. 15630080), 1X GlutaMAX supplement (Thermo Fisher Scientific, cat. 35050061), 0.1 mg/mL primocin (InvivoGen, San Diego, CA, cat. ant-pm-2), 10% defined fetal bovine serum, heat inactivated (HyClone Laboratories Inc., Logan, UT, cat. SH30070.03HI), 50% L-WRN conditioned media (ATCC, cat. CRL-3276), 1.25 mM N-Acetyl-L-cysteine (Sigma-Aldrich, cat. A9165), 10 mM nicotinamide (Sigma-Aldrich, cat. N0636), 1X B-27 supplement (Thermo Fisher Scientific, cat. 17504044), 1X N-2 supplement (Thermo Fisher Scientific, cat. […]

[1] = second compound 0.0316 µM, first compound 0.0316 µM
[2] = second compound 0.0316 µM, first compound 0.1 µM
[3] = second compound 0.0316 µM, first compound 0.316 µM
[4] = second compound 0.0316 µM, first compound 1 µM
[5] = second compound 0.0316 µM, first compound 3.16 µM
[6] = second compound 0.0316 µM, first compound 10 µM
[7] = second compound 0.1 µM, first compound 0.0316 µM
[8] = second compound 0.1 µM, first compound 0.1 µM
[9] = second compound 0.1 µM, first compound 0.316 µM
[10] = second compound 0.1 µM, first compound 1 µM
[11] = second compound 0.1 µM, first compound 3.16 µM
[12] = second compound 0.1 µM, first compound 10 µM
[13] = second compound 0.316 µM, first compound 0.0316 µM
[14] = second compound 0.316 µM, first compound 0.1 µM
[15] = second compound 0.316 µM, first compound 0.316 µM
[16] = second compound 0.316 µM, first compound 1 µM
[17] = second compound 0.316 µM, first compound 3.16 µM
[18] = second compound 0.316 µM, first compound 10 µM
[19] = second compound 1 µM, first compound 0.0316 µM
[20] = second compound 1 µM, first compound 0.1 µM
[21] = second compound 1 µM, first compound 0.316 µM
[22] = second compound 1 µM, first compound 1 µM
[23] = second compound 1 µM, first compound 3.16 µM
[24] = second compound 1 µM, first compound 10 µM
[25] = second compound 3.16 µM, first compound 0.0316 µM
[26] = second compound 3.16 µM, first compound 0.1 µM
[27] = second compound 3.16 µM, first compound 0.316 µM
[28] = second compound 3.16 µM, first compound 1 µM
[29] = second compound 3.16 µM, first compound 3.16 µM
[30] = second compound 3.16 µM, first compound 10 µM
[31] = second compound 10 µM, first compound 0.0316 µM
[32] = second compound 10 µM, first compound 0.1 µM
[33] = second compound 10 µM, first compound 0.316 µM
[34] = second compound 10 µM, first compound 1 µM
[35] = second compound 10 µM, first compound 3.16 µM
[36] = second compound 10 µM, first compound 10 µM
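Note: spheroids exposed to compounds for seven days before readout.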
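Throughout, for viability, T/C: 100% = DMSO vehicle control viability.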

CCc1cc2c(N3CCc4c(cc(Cn5ccnc5)cc4-c4cn(C)nc4C(F)(F)F)C3=O)ccnc2c(OC)n1 + Cc1cccc(N(C)C(=O)C2C(O)CCN2c2nc(C)cc(C(F)(F)F)c2C#N)c1
IC50 (second compound 0.0316 µM): > 10 µM | IC50 (second compound 0.1 µM): > 10 µM | IC50 (second compound 0.316 µM): 8.04 µM | IC50 (second compound 1 µM): > 10 µM | IC50 (second compound 3.16 µM): 8.36 µM | IC50 (second compound 10 µM): 8.04 µM | viability, T/C [1]: 91.7% | viability, T/C [2]: 103% | viability, T/C [3]: 82.1% | viability, T/C [4]: 82% | viability, T/C [5]: 70% | viability, T/C [6]: 53.5% | viability, T/C [7]: 93% | viability, T/C [8]: 107% | viability, T/C [9]: 84.2% | viability, T/C [10]: 96.6% | viability, T/C [11]: 73.4% | viability, T/C [12]: 50.7% | viability, T/C [13]: 102% | viability, T/C [14]: 104% | viability, T/C [15]: 101% | viability, T/C [16]: 98% | viability, T/C [17]: 76.6% | viability, T/C [18]: 43.7% | viability, T/C [19]: 98.4% | viability, T/C [20]: 101% | viability, T/C [21]: 87.8% | viability, T/C [22]: 94.4% | viability, T/C [23]: 68.2% | viability, T/C [24]: 61.1% | viability, T/C [25]: 99.6% | viability, T/C [26]: 103% | viability, T/C [27]: 87.7% | viability, T/C [28]: 86.9% | viability, T/C [29]: 66.1% | viability, T/C [30]: 47% | viability, T/C [31]: 115% | viability, T/C [32]: 104% | viability, T/C [33]: 88.3% | viability, T/C [34]: 92.9% | viability, T/C [35]: 76.6% | viability, T/C [36]: 42.6%

CC1COCCN1c1cc(C2(S(C)(=N)=O)CC2)nc(-c2ccnc3[nH]ccc23)n1 (centres undefined) + Nc1ccc(C#CCN(C(=O)Cc2ncc(C(F)(F)F)cc2C(F)(F)F)c2ccc(F)cc2)nn1
IC50 (second compound 0.0316 µM): 5.98 µM | IC50 (second compound 0.1 µM): 5.7 µM | IC50 (second compound 0.316 µM): 4.48 µM | IC50 (second compound 1 µM): 4.27 µM | IC50 (second compound 3.16 µM): 6.2 µM | IC50 (second compound 10 µM): 3.53 µM | viability, T/C [1]: 110% | viability, T/C [2]: 108% | viability, T/C [3]: 89.2% | viability, T/C [4]: 76.8% | viability, T/C [5]: 59.7% | viability, T/C [6]: 42.5% | viability, T/C [7]: 82.7% | viability, T/C [8]: 101% | viability, T/C [9]: 89.8% | viability, T/C [10]: 76.4% | viability, T/C [11]: 62% | viability, T/C [12]: 39.6% | viability, T/C [13]: 96.7% | viability, T/C [14]: 111% | viability, T/C [15]: 93.1% | viability, T/C [16]: 73.4% | viability, T/C [17]: 56.7% | viability, T/C [18]: 40.2% | viability, T/C [19]: 99.5% | viability, T/C [20]: 90.3% | viability, T/C [21]: 87.5% | viability, T/C [22]: 65.4% | viability, T/C [23]: 56.6% | viability, T/C [24]: 37.4% | viability, T/C [25]: 114% | viability, T/C [26]: 93.1% | viability, T/C [27]: 97.6% | viability, T/C [28]: 82.3% | viability, T/C [29]: 63.8% | viability, T/C [30]: 39.4% | viability, T/C [31]: 98.1% | viability, T/C [32]: 105% | viability, T/C [33]: 102% | viability, T/C [34]: 83.7% | viability, T/C [35]: 52% | viability, T/C [36]: 37.5%
